Results: paper PMC10350927 (Journal of Medicinal Chemistry, 2023)
Numbering of substitutions follows the chain as printed.

Columns and labels:
hSUCNR1 [1] = biological target: T1, hSUCNR1 (Homo sapiens, UniProt Q9BXA5); test: cAMP assay, inhibition of succinate response at hSUCNR1; type: cell-based; parameters: expressed in transfected cells; host or cells: Flp-In T-REx 293; details: inhibition of […] succinate response; mean ± SEM
T1 sequence (Q9BXA5 1-334): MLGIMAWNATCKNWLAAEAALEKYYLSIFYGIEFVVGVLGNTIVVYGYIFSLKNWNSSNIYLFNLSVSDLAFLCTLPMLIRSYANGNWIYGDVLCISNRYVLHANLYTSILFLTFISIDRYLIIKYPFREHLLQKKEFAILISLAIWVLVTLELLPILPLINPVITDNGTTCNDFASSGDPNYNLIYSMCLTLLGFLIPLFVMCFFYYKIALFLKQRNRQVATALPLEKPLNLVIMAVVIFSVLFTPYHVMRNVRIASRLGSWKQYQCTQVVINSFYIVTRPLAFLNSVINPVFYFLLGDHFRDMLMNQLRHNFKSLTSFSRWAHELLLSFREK

hmSUCNR1 [2] = biological target: T2, hmSUCNR1 (Mus musculus, UniProt Q99MT6, G84W/K269N/N18E); test: BRET competition binding using 46 as tracer, hmSUCNR1
T2 sequence (Q99MT6 1-317 N18E/G84W/K269N): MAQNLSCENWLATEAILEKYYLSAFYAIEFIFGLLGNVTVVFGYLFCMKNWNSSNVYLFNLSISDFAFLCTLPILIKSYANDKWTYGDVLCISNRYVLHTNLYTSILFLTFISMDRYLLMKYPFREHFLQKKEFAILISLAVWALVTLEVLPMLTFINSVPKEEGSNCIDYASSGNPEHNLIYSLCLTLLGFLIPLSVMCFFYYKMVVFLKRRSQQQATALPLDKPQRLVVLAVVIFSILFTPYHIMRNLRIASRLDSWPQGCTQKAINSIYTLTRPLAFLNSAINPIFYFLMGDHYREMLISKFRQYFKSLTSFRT

hSUCNR1 [3] = biological target: T1, hSUCNR1; test: BRET competition binding using 46 as tracer, hSUCNR1; details: […] 46, Kd = 310 nM
[4] = biological target: T3, mSUCNR1-N18^1.31E/K269^7.32N (Mus musculus, UniProt Q99MT6, K269N/N18E); test: G protein activation BRET assay, mSUCNR1-N18E/K269N; type: cell-based; details: against an EC80 concentration of succinate
T3 construct: expressed in transfected cells; host or cells: HEK-293T
T3 sequence (Q99MT6 1-317 N18E/K269N): T2 sequence (Q99MT6 1-317 N18E/G84W/K269N) with W84G
Description: G protein activation assays were carried out using the open-source TRUPATH platform previously described.[36]

hmSUCNR1 [5] = biological target: T2, hmSUCNR1; test: BRET competition binding using 22 as tracer, hmSUCNR1
[6] = biological target: T4, mSUCNR1 construct containing N18^1.31E, K269^7.32N, and G84^EL1W (Mus musculus, UniProt Q99MT6, G84W/K269N/N18E); test: G protein activation BRET assay, mSUCNR1-N18E/G84W/K269N; type: cell-based
T4 construct: expressed in transfected cells; host or cells: HEK-293T
T4 sequence (Q99MT6 1-317 N18E/G84W/K269N): T2 sequence (Q99MT6 1-317 N18E/G84W/K269N)
Description: G protein activation assays were carried out using the open-source TRUPATH platform previously described.[36] HEK-293T cells were transfected with Gαi1-Rluc8, Gγ8-GFP^2, Gβ3 and either human, mouse, mouse-N18E/K269N, or mouse-N18E/G84W/K269N SUCNR1 in a 1:1:1:1 plasmid mass ratio using polyethyleneimine.

hSUCNR1 [7] = biological target: T1, hSUCNR1; test: BRET competition binding using 22 as tracer, hSUCNR1; details: 3 μM 22, Kd = 990 nM; mean ± SEM, three experiments
mSUCNR1 [8] = biological target: T5, mSUCNR1 (Mus musculus, UniProt Q99MT6); test: BRET competition binding using 22 as tracer, mSUCNR1; details: 1 μM 22, Kd = […]; highest unlabeled ligand 30 μΜ
T5 sequence (Q99MT6 1-317): T2 sequence (Q99MT6 1-317 N18E/G84W/K269N) with E18N, W84G, N269K

[9] = biological target: T6, hmSUCNR1 (N18^1.31E, K269^7.32N, and G84^EL1W) (Mus musculus, UniProt Q99MT6, G84W/K269N/N18E); test: cAMP assay, inhibition of succinate response at hmSUCNR1; type: cell-based; details: read-out: hmSUCNR1 cAMP pIC50 (converted)
T6 construct: mGlu5 glutamate receptor signal peptide (N); expressed in transfected cells; the methods describe Flp-In T-REx 293
T6 sequence (Q99MT6 1-317 N18E/G84W/K269N): T2 sequence (Q99MT6 1-317 N18E/G84W/K269N)

Nluc-mSUCNR1 = biological target: T7, Nluc-mSUCNR1 (Mus musculus, UniProt Q99MT6); test: cAMP assay, agonist potency at Nluc-mSUCNR1; details: N-terminally Nluc-tagged receptor
T7 sequence (Q99MT6 1-317): T2 sequence (Q99MT6 1-317 N18E/G84W/K269N) with E18N, W84G, N269K

hSUCNR1 [10] = biological target: T1, hSUCNR1; test: cAMP assay, agonist potency at hSUCNR1; type: cell-based; parameters: expressed in transfected cells; host or cells: Flp-In T-REx 293; details: Flp-In T-REx 293 cells, mean ± SEM, minimum three independent experiments
mSUCNR1 [11] = biological target: T5, mSUCNR1; details: transiently transfected HEK-293T cells
mSUCNR1 [12] = biological target: T5, mSUCNR1; test: cAMP assay, agonist potency at mSUCNR1; type: cell-based; parameters: expressed in transfected cells; host or cells: Flp-In T-REx 293; details: Flp-In T-REx 293 cells; for cAMP mSUCNR1 pEC50: mean ± SEM, minimum three independent experiments

Structure (SMILES)	cAMP hSUCNR1 pIC50 (hSUCNR1 [1])	Ki (hmSUCNR1 [2]) [µM]	Competion binding using 46 hSUCNR1 pKi (hSUCNR1 [3])	antagonism against mSUCNR1-N18^1.31E/K269^7.32N [4]	Ki (hmSUCNR1 [5]) [µM]	antagonism at mSUCNR1 N18^1.31E, K269^7.32N, G84^EL1W mutant ([6]; against an EC80 concentration of succinate)	Competion binding using 22 hSUCNR1 pKi (hSUCNR1 [7])	Competion binding using 22 mSUCNR1 pKi (mSUCNR1 [8])	IC50 [9] [µM]	Nluc-mSUCNR1 cAMP pEC50 (Nluc-mSUCNR1)	cAMP hSUCNR1 pEC50 (hSUCNR1 [10])	EC50 (hSUCNR1 [10]; read-out: cAMP hSUCNR1 pEC50 (converted)) [µM]	G protein activation pEC50 at mSUCNR1 N18^1.31E, K269^7.32N, G84^EL1W ([6]; transiently transfected HEK-293T cells)	G protein activation pEC50 at mSUCNR1 (mSUCNR1 [11])	Emax (mSUCNR1 [12]) [%]	cAMP mSUCNR1 pEC50 (mSUCNR1 [12])	cAMP mSUCNR1 pEC50 (mSUCNR1 [12]; listed as succinate)
CN1CCN(Cc2ccc(-c3cccc(C(=O)Nc4ccccc4CC(=O)O)c3)cc2)CC1 [Compound 1, 4-((3′-((2-(Carboxymethyl)phenyl)carbamoyl)-[1,1′-biphenyl]-4-yl)methyl)-1-methylpiperazin-1-ium 2,2,2-trifluoroacetate]	7.07 ± 0.21	0.0631	7.1 ± 0.1	no measurable antagonism	0.0501	a level of antagonism similar to that with hSUCNR1	7.4 ± 0.1	5.1 ± 0.0	0.0794								
O=C(O)CCC(=O)O [Succinate]		631	3.2 ± 0.1		1000		3.7 ± 0.1	3.3 ± 0.1		5.69 ± 0.11	5.04 ± 0.02	~10	4.28 ± 0.09	5.29 ± 0.12	100	5.02 ± 0.10	~5.0
